From patent US11679111B2, “Fatty acid synthase inhibitors” (priority 2016, dated 2023)

How the values were obtained:
[1] = system: MMTV-Neu model of HER2+ breast cancer; experiment: Efficacy in MMTV-Neu model of HER2+ breast cancer; type: in vivo, mice; settings: 30 pmol/kg IP biweekly, vehicle 29 days
[2] = system: MCF10A cells; experiment: Proliferation assay (Hoechst DNA content), non-tumorigenic cell line; type: cell-based
Experimental: MCF10A (5,000 cells/well), MCF7 (7,500 cells/well), MDA-MB-468 (5,000 cells/well), BT474 (7,500 cells/well), and SKBR3 (5,000 cells/well) were seeded in 96 well plates with 10% FBS 4 g/L glucose DMEM media except for MCF10A which was DMEM/F12 media. After 24 hours, cells were treated with different concentration of HS-106 or C75. Every 24 hours for five days, media from one of the plates was removed and plate was frozen at −80° C. After collecting all the time points, to each well 100 μl ddH2O was add and the plates were frozen again. Then 100 μI of Hoechst 33258 solution made in TNE buffer (1 μl from Hoechst stock (1 mg/ml in 1:4 DMSO:H20) in 1 ml of TNE (which contains 10 mM Tris, 2M NaCl and 1 mM Na2EDTA) and fluorescence was measured at Ex/Em: 355/460.

[3] = Cellular toxicity / viability in the TZM-bl model; settings: human, TZM-bl cells
Text: (§1) The data presented are mean values (±SD) from three independent experiments. ** Indicates p<0.0001, treatment versus DMSO-treated control (Students t-test).

[4] = system: TZM-bl cells; experiment: Cellular toxicity / viability in the TZM-bl model
Text: as §1

[5] = molecular target: T1, FASN (Sus scrofa, UniProt A5YV76); experiment: FLECS screen, elution of fluorescein labeled proteins from Cibacron blue resin; type: binding, porcine; settings: SDS-PAGE and mass spectrometry
T1 construct: from tissue; host or cells: lactating porcine mammary gland extract
Text: To specifically identify inhibitors of FASN targeting its nucleotide binding pockets Cibacron blue Sepharose was utilized. This medium has been used previously to purify NAD and NADP binding proteins from crude tissues extracts (Miyaguchi et al., 2011; Muratsubaki et al., 1994). FASN enriched extract from lactating pig mammary gland was bound to the resin and labeled with cysteine reactive fluorescein. […] One hundred and fifty-five of the molecules selectively eluted FASN from the resin, and 20 potential lead compounds were progressed according to their FASN selectivity (assessed with SDS-PAGE, silver staining and mass spectrometry). These twenty compounds were reduced to 13 based on the absence of any obvious chemical liabilities. Next, the molecules were tested for their ability to inhibit FASN activity in a HepG2 cell based assay that measured the incorporation of ^3H glucose into lipids (FIG. 1B and FIG. 9).
Porcine mammary glands were collected from lactating pigs as previously described (Hughes et al., 2012). Tissues were homogenized in lysis buffer A (100 mM sodium fluoride, 5 mM EDTA, 1 mM DTT and 5% glycerol made in 10 mM sodium phosphate buffer pH 7.5) in a ratio of 3 ml of buffer per each gram of tissue. […] Fluorescence in each well was measured at Ex/Em: 485/535 nm. […]

[6] = system: ATP binding proteins of BT474 cells lysate; experiment: Elution of ATP Sepharose loaded with BT474 cells lysate; settings: 1, 2.5, 5 and 10 mM
Experimental: FIGS. 13A-13D illustrate the characterization of purified FASN and Fasnall elution of ATP Sepharose. […] Lane 6 and 7 are 10 mM Staurosporine and 50 mM ATP, respectively, as positive controls.

[7] = system: HIV-1; experiment: HIV/TZM-bl assay, extracellular p24 ELISA; type: cell-based
Experimental: HS-106 or C75 were dissolved in DMSO to achieve 10 mM stock concentration. The stock solution of each drug was serially diluted 3-fold with DMSO and 2 μL of each dilution was added to each well to achieve final concentration range from 10 μM to 4.6 nM fixing final [DMSO] at 1%. HIVNL4.3 was added to 3×10^4 TZM-bl cells at 10 ng/ml p24 equivalents in the presence of 15 μg/mL DEAE dextran. HIV-infected cells were incubated at 37° C. in 5% CO2 for 24 hours, washed with PBS, fresh media was added, and cell were incubated for another 24 hours. Supernatants were collected and stored at −80° C. until P24 ELISA assay. HIV-1 replication was assessed by quantitative p24 ELISA. Nevirapine (positive control) was obtained from the AIDS Reagent Repository and was used at […].

T1 sequence (A5YV76 entry or part of it): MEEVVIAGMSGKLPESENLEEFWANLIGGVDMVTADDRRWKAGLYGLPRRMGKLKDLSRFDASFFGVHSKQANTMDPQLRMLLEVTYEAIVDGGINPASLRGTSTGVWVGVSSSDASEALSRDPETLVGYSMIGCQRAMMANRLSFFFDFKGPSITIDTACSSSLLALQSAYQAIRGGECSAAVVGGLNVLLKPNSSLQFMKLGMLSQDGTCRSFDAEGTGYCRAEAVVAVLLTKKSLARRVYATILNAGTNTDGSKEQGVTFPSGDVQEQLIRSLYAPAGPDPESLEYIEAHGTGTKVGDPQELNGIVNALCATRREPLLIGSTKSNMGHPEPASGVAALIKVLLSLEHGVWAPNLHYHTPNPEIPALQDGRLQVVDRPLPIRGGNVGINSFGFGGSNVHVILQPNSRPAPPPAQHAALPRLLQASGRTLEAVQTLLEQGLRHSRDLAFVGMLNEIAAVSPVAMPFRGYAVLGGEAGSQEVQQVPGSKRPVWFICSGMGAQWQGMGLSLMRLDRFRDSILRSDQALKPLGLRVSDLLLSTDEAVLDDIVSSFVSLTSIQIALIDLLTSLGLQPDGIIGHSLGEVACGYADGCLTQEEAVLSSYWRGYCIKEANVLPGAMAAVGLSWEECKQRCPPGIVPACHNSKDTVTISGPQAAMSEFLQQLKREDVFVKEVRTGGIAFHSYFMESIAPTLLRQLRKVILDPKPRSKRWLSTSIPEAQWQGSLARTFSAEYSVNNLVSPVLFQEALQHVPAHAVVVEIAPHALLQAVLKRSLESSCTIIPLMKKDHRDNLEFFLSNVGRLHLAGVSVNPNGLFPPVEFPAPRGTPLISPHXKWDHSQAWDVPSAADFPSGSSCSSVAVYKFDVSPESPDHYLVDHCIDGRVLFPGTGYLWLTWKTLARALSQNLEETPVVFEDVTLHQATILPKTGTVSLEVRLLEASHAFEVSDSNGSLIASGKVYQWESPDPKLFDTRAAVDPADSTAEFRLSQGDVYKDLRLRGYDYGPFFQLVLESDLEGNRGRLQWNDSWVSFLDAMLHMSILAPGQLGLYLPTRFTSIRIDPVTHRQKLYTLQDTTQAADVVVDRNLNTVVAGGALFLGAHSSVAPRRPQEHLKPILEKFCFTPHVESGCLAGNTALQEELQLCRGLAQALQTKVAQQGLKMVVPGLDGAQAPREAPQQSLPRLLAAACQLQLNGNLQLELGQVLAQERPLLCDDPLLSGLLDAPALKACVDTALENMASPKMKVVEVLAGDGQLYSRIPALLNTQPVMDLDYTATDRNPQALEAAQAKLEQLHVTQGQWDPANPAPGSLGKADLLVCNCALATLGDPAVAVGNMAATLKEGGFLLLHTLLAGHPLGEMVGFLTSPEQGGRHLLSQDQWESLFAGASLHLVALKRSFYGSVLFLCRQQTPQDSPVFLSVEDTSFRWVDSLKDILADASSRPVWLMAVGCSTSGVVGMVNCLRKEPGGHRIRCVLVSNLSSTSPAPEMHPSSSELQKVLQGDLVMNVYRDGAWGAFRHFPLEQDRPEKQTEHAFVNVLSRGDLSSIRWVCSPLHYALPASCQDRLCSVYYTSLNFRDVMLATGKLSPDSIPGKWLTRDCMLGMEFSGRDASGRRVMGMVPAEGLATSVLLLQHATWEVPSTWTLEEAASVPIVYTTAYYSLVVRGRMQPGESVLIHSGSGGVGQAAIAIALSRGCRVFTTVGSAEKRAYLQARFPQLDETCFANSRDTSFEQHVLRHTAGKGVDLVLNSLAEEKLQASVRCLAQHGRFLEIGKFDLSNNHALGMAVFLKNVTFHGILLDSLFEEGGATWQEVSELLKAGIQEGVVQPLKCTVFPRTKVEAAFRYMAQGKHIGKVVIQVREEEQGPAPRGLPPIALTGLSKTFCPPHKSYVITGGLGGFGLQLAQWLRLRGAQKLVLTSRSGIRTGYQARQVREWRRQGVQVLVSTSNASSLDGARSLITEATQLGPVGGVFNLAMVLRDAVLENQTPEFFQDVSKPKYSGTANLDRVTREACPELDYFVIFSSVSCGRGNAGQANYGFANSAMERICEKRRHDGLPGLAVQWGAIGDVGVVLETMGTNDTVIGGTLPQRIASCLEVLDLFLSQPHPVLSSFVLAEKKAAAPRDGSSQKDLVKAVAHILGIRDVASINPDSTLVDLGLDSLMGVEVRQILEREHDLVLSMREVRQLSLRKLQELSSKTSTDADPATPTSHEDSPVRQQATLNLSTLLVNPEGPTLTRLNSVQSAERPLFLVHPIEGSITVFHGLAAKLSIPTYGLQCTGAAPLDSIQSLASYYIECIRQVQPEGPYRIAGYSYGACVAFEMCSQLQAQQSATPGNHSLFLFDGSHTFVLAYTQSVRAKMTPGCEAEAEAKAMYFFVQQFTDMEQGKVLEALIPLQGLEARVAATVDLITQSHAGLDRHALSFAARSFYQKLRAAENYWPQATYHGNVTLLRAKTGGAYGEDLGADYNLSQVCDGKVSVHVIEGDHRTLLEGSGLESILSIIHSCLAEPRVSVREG

Cc1sc2ncnc(NC3CCN(Cc4ccccc4)C3)c2c1C (racemic) [HS-106, N-(1-benzylpyrrolidin-3-yI)-5,6-dimethylthieno[2,3-d]pyrimidin-4-amine]
median survival [1]: 63 days | inhibition of proliferation [2]: lower activity | CC50 [3]: 10 µM | TZM-bl cell viability (MTT-activity) [4]: without significant effects on TZM-bl cell viability | elution of FASN from Cibacron blue resin (hit strength / selectivity) [5]: selectively elutes FASN | elution of proteins from ATP Sepharose [6]: does not elute any proteins more than DMSO | EC50 ([7]; Human immunodeficiency virus 1, TZM-bl cells, 48 hours post infection, read-out: EC50, HIV-1 p24 production): 0.213 µM | antiviral index (TC50/EC50) ([7]; TZM-bl model): 47
